Earlier results on 2 compounds are cited in US20090075956A1 (priority 2005, published 2009).

Counter-ions that a name gives are not always drawn.

Consider `O=[N+]([O-])O[C@H]1CO[C@H]2[C@@H]1OC[C@H]2O[N+](=O)[O-]` [Diluted isosorbide dinitrate, 1,4,3,6-dianhydro-D-glucitol-2,5-dinitrate], for which the solubility in water entry was “sparingly soluble”. The “solubility in organic solvents” value (organic solvents such as ethanol, ether and chloroform) was “freely soluble”.

For the compound `NNc1nncc2ccccc12` [Hydralazine hydrochloride, hydralazine hydrochloride], the solubility in water entry is “soluble”. The solubility in alcohol result (alcohol) was “slightly soluble”. In addition, the solubility in ether entry (ether) is reported as “very slightly soluble”.
